Experimental data reported in US5550128A, “Enantiomers of gamma methylene 10-deaza aminopterin and process for preparing the same” (priority 1994, dated 1996).

Tests used:
[1] = tested on: Human HCT-8 Ileocecal Xenograft; experiment: Antitumor activity by I.V. push, daily × 5, against human HCT-8 ileocecal xenograft; settings: for CR: Complete Regression / MIR: Maximum inhibitory rate / PR: Partial Regression / TD: Tumor doubling time: i.v. push daily × 5
Source text: [M. G. Nair and Ann Abraham, U.S. Pat. No. 4,996,207 (1991); M. G. Nair, U.S. Pat. No. 5,073,554 (1991 )]. […] [Ann Abraham, M. G. Nair, et al. Advanced in Exp. Med. and Biol. 663-666 (1993)].
MIR: Maximum inhibitory rate. TD: Tumor doubling time.
CR: Complete Regression. PR Partial Regression.
(§1) MWL: Maximum Weight Loss.

[2] = tested on: Human HCT-8 Ileocecal Xenograft; experiment: Antitumor activity by continuous i.v. infusion (C.I.) × 5d against human HCT-8 ileocecal xenograft; assay type: in vivo, human (xenograft in nude mice); settings: C.I. × 5d
Source text: Antitumor Activity of MDAM by C.I. × 5d
against HUMAN HCT-8 Ileocecal Xenograft
MIR: Maximum inhibitory rate.
TD: Tumor doubling time.
CR: Complete Regression.
PR: Partial Regression.
as §1

[3] = target: T1, Recombinant Human Dihydrofolate Reductase (Homo sapiens, UniProt P00374); experiment: Inhibition of recombinant human dihydrofolate reductase, spectrophotometric enzyme assay; assay type: biochemical
T1 sequence (P00374 1-187): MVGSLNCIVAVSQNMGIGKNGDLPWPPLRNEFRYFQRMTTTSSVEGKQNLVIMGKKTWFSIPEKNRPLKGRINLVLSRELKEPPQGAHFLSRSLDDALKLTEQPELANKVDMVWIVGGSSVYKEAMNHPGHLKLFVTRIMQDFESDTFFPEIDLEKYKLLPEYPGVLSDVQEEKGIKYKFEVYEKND
Method: Enzyme assay was performed spectrophotometrically in a solution containin
50 μM dihydrofolate, 80 μM NADPH, 0.05 M Tris HCl. 0.01 M
2mercaptoethanol and 0.001 M EDTA at pH 7.4 at 30°. The reaction
Pure human recombinant enzyme was used.

[4] = tested on: transport of radiolabeled folinic acid to H35 hepatoma cells; experiment: Inhibition of transport of radiolabeled folinic acid to H35 hepatoma cells; assay type: cell-based; settings: H35 hepatoma cells; read-out: l50 value, inhibition of transport of radiolabeled folinic acid
Method: (§2) Independent, further evidences to the identity of L-MDAM as the biologically active enantiomer of the racemic mixture of D,L-MDAM (previously described as MDAM; Ref, U.S. Pat. No. 4,996,207) was obtained by the following data. […] The cytotoxicity of L-MDAM versus D,L-MDAM was also compared. […] The l50 value for growth inhibition (Gl50) was 39 nM for D,L-MDAM. […] Taken together, these unexpected and novel results establish that the biologically active compound present in the racemic mixture of MDAM is the L-enantiomer described in claim number 1.

H35 hepatoma cells = experiment: Growth inhibition of H35 hepatoma cells in culture; assay type: cell-based; settings: H35 hepatoma cells in culture, identical conditions; read-out: l50 value for growth inhibition (Gl50)
Method: as §2

[5] = tested on: human tumor cell lines in culture; experiment: Human Tumor Disease Oriented in vitro screen, panel as a whole; assay type: cell-based; settings: relative to methotrexate, or enantiomer comparison
Method: Further, by analogy to methotrexate (rheumatrex) L-MDAM should be useful in the treatment of autoimmune diseases such as rheumatoid arthritis and inflammatory diseases such as asthma.
A 48 h continuous drug exposure protocol was used combined with an SR13
protein assay to estimate cell growth or viability.

L1210 leukemia = settings: animals bearing L1210 leukemia; cited from earlier work
P388 leukemia = settings: animals bearing P388 leukemia; cited from earlier work
[6] = animals; relative to MTX; cited from earlier work
[7] = single iv push daily for 5 days at the maximum tolerated dose, nude mice

C=C(CC(NC(=O)c1ccc(CCc2cnc3nc(N)nc(N)c3n2)cc1)C(=O)O)C(=O)O (racemic) [D,L-MDAM, γ-methylene-10-deazaaminopterin]
CR: Complete Regression ([1]; 30 mg/kg): 0%
MIR: Maximum inhibitory rate ([1]; 30 mg/kg): 58.8 ± 9.2%
PR: Partial Regression ([1]; 30 mg/kg): 0%
TD: Tumor doubling time ([1]; 30 mg/kg): 6.2 ± 0.9 days
CR: Complete Regression ([1]; 40 mg/kg): 25%
MIR: Maximum inhibitory rate ([1]; 40 mg/kg): 79.2 ± 7.5%
PR: Partial Regression ([1]; 40 mg/kg): 25%
TD: Tumor doubling time ([1]; 40 mg/kg): 7.1 ± 0.5 days
CR: Complete Regression ([1]; 50 mg/kg): 25%
MIR: Maximum inhibitory rate ([1]; 50 mg/kg): 79.2 ± 6.2%
PR: Partial Regression ([1]; 50 mg/kg): 50%
TD: Tumor doubling time ([1]; 50 mg/kg): 8.4 ± 0.4 days
antitumor response [1, 7]: 75%
complete tumor regression [1, 7]: 25%
CR: Complete Regression ([2]; 0.5 mg/kg): 0%
MIR: Maximum inhibitory rate ([2]; 0.5 mg/kg): 49.8 ± 8.2%
PR: Partial Regression ([2]; 0.5 mg/kg): 0%
TD: Tumor doubling time ([2]; 0.5 mg/kg): 5.3 ± 0.9 days
CR: Complete Regression ([2]; 1 mg/kg): 0%
MIR: Maximum inhibitory rate ([2]; 1 mg/kg): 56.4 ± 7.8%
PR: Partial Regression ([2]; 1 mg/kg): 0%
TD: Tumor doubling time ([2]; 1 mg/kg): 6.0 ± 0.7 days
CR: Complete Regression ([2]; 2 mg/kg(/day)): 38%
PR: Partial Regression ([2]; 2 mg/kg(/day)): 38%
MIR: Maximum inhibitory rate ([2]; 2 mg/kg): 81.7 ± 7.2%
TD: Tumor doubling time ([2]; 2 mg/kg): 12.4 ± 5.8 days
IC50 ([3]; 50 μM dihydrofolate, 80 μM NADPH, pH 7.4, 30°): 44 nM
IC50 Compound/IC50 MTX ([3]; ratio to MTX): 2.58
IC50 [4]: 5500 nM
IC50 (H35 hepatoma cells): 39 nM
activity/potency in inhibiting growth of human tumor cell lines (in words) [5]: more potent activity relative to methotrexate in several tumor cell lines
activity/potency in inhibiting growth of human tumor cell lines (in words) ([5]; listed as MDAM): equivalent or greater potency than methotrexate
in vivo antitumor activity relative to MTX (L1210 leukemia): superior in vivo antitumor activity relative to the polyglutamylatable MTX
in vivo antitumor activity relative to MTX (P388 leukemia): superior in vivo antitumor activity relative to the polyglutamylatable MTX
tolerability [6]: tolerated by animals at higher doses
